# Source: ChEMBL document CHEMBL4414648, “Novel Benzohydroxamate-Based Potent and Selective Histone Deacetylase 6 (HDAC6) Inhibitors Bearing a Pentaheterocyclic Scaffold: Design, Synthesis, and Biological Evaluation” (J Med Chem, 2019)
# Assays:
# [1] = target: Histone deacetylase 3/Nuclear receptor corepressor 2 (HDAC3/NCoR2) (Homo sapiens, UniProt O15379); test: Inhibition of C-terminal His-tagged human HDAC3 (1 to 428 residues)/N-terminal GST tagged human NCOR2 (395 to 489) expressed in baculovirus infected sf9 insect cells pretreated with compound followed by Fluor de Lys deacetylase substrate addition by fluorescence method
# Histone deacetylase 3/Nuclear receptor corepressor 2 (HDAC3/NCoR2), sequence (O15379 whole entry, the tested form may be a part): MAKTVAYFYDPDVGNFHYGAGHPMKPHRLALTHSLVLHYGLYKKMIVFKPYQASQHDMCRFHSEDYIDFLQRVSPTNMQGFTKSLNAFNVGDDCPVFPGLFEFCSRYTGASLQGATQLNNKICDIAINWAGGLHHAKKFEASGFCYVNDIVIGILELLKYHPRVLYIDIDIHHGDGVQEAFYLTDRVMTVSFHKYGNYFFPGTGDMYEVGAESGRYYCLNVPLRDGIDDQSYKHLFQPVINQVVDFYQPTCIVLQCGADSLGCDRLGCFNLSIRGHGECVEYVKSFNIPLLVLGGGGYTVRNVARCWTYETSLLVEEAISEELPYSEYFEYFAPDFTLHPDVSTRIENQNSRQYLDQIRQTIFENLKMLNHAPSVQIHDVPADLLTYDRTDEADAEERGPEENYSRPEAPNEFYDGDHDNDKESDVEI
# Histone deacetylase 3/Nuclear receptor corepressor 2 (HDAC3/NCoR2), sequence (Q9Y618 whole entry, further chain, the tested form may be a part): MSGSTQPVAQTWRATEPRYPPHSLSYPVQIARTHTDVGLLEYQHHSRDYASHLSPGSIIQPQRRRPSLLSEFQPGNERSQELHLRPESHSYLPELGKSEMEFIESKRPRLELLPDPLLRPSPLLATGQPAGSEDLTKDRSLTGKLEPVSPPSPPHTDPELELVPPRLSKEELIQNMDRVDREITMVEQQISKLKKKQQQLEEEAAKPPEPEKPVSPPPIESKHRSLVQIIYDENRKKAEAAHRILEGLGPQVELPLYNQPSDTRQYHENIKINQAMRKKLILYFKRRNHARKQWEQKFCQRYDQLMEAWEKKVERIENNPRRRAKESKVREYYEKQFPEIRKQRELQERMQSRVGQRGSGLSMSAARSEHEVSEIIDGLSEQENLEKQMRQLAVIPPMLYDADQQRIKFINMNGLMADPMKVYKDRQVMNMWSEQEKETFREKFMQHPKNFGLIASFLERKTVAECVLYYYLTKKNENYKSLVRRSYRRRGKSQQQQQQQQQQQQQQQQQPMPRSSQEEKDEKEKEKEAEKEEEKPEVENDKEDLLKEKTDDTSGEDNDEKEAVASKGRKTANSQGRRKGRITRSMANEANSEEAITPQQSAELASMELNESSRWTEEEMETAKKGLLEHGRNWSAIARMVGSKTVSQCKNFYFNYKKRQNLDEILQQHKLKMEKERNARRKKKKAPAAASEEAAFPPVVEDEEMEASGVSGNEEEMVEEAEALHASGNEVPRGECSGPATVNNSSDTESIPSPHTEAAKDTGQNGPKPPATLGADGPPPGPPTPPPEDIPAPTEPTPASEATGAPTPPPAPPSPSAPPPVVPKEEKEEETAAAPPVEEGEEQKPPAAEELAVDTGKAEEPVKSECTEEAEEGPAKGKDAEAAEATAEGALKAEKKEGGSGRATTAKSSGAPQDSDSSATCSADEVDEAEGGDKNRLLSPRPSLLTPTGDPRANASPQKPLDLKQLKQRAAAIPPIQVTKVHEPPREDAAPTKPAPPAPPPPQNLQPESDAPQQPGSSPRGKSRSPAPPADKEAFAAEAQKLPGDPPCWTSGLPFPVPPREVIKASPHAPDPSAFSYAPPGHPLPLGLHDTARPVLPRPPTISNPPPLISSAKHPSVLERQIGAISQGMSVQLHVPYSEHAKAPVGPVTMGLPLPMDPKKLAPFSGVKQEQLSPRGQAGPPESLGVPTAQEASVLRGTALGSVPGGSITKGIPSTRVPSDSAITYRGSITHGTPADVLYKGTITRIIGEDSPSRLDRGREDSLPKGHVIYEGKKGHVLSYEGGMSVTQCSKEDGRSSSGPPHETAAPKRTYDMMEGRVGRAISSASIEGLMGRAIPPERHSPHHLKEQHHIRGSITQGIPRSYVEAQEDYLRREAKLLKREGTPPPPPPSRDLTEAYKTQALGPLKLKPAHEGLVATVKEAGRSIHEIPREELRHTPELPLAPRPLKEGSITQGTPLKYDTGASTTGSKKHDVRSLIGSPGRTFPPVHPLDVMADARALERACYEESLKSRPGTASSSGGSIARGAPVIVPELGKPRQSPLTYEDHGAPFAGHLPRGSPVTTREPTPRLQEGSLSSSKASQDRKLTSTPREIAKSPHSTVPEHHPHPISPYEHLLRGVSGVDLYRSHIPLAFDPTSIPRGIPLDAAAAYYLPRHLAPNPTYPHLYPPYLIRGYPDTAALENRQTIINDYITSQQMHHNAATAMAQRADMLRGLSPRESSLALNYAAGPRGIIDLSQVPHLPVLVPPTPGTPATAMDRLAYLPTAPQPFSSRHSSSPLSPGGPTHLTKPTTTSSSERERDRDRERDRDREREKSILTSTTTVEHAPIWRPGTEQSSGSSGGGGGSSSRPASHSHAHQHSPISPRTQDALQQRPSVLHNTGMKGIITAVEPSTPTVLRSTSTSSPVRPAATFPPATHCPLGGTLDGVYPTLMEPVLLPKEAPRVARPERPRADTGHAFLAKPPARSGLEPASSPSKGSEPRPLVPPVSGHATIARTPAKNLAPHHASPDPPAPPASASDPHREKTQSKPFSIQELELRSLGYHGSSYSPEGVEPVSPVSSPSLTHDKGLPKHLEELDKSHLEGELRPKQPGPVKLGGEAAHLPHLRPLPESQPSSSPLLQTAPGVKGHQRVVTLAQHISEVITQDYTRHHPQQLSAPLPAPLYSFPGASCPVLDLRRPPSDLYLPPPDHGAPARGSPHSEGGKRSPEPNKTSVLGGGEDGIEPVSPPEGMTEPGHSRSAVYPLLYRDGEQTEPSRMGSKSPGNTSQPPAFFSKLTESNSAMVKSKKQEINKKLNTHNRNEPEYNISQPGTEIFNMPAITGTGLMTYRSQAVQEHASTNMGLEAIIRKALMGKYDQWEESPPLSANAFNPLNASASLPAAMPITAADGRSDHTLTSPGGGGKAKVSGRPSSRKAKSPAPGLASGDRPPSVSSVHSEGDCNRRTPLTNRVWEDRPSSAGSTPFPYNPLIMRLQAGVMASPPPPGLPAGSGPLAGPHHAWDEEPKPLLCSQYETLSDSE
# [2] = target: T1, Protein deacetylase HDAC6 (Homo sapiens, UniProt Q9UBN7); test: biochemical
# T1 sequence (Q9UBN7 whole entry): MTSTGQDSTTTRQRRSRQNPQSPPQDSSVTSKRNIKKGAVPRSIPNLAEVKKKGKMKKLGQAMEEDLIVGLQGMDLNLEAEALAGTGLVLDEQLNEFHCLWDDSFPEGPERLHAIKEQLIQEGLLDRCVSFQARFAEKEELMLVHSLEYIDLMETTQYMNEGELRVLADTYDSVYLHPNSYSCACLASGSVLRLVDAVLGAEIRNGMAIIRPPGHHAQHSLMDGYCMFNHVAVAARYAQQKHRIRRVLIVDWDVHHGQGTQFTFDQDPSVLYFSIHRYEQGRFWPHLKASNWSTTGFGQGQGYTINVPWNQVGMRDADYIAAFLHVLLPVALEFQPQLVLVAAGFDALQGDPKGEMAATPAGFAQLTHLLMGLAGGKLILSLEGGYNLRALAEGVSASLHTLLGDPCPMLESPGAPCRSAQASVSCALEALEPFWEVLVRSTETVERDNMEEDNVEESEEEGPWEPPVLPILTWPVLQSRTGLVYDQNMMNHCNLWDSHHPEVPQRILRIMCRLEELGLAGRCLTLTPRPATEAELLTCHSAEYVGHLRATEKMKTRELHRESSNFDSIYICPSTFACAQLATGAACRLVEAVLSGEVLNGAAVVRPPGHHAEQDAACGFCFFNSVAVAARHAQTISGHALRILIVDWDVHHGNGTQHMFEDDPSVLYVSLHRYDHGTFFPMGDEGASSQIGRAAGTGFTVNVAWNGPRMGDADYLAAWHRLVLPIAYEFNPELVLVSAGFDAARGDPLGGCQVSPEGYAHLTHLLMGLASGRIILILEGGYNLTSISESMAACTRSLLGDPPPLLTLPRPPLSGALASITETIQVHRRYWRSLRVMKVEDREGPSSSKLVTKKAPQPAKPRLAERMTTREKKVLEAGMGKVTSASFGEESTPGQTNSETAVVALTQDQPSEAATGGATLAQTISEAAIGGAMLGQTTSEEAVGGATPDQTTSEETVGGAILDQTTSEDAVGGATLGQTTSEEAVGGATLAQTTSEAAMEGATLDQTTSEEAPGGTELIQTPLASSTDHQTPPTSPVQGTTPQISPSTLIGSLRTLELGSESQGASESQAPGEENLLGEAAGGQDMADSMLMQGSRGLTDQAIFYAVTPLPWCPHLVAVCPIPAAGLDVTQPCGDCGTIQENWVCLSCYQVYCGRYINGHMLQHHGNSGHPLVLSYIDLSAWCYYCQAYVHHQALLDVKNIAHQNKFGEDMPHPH
# [3] = test system: Histone deacetylase; test: Inhibition of HDAC in human 697 cells assessed as increase in H3 acetylation at 1000 nM incubated for 16 hrs by ELISA; type: cell-based; settings: human, 697, 16 h, 1 µM
# [4] = Stability in human plasma assessed as parent compound remaining at 100 uM after 4 hrs by LC-MS/MS analysis; type: ADME, cell-free; settings: read-out: Stability
# [5] = Selectivity ratio of IC50 for N-terminal His-tagged human HDAC11 expressed in baculovirus expression system to IC50 for human N-terminal GST-tagged HDAC6 expressed in baculovirus infected sf9 insect cells
# [6] = test system: PBMC; test: Cytotoxicity against human PBMC cells after 72 hrs by CellTiter 96 aqueous one solution assay; type: cell-based
# [7] = Selectivity ratio of IC50 for C-terminal GST-tagged human HDAC5 to IC50 for human N-terminal GST-tagged HDAC6 expressed in baculovirus infected sf9 insect cells
# [8] = Selectivity ratio of IC50 for N-terminal GST-tagged human HDAC7 (518 to end residues) expressed in baculovirus infected sf9 insect cells to IC50 for human N-terminal GST-tagged HDAC6 expressed in baculovirus infected sf9 insect cells
# [9] = Stability in human liver S9 fraction assessed as parent compound remaining at 5 uM after 90 mins in presence of NADPH by LC-MS/MS analysis; type: ADME, subcellular; settings: read-out: Stability
# [10] = Stability in rat plasma assessed as parent compound remaining at 100 uM after 4 hrs by LC-MS/MS analysis; type: ADME, cell-free; settings: read-out: Stability
# [11] = Selectivity ratio of IC50 for C-terminal His-tagged human HDAC9 (604 to 1066 residues) expressed in baculovirus infected sf9 insect cells to IC50 for human N-terminal GST-tagged HDAC6 expressed in baculovirus infected sf9 insect cells
# [12] = Selectivity ratio of IC50 for human HDAC4 expressed in baculovirus infected sf9 insect cells to IC50 for human N-terminal GST-tagged HDAC6 expressed in baculovirus infected sf9 insect cells
# [13] = Selectivity ratio of IC50 for C-terminal His-tagged human HDAC8 expressed in baculovirus infected sf9 insect cells to IC50 for human N-terminal GST-tagged HDAC6 expressed in baculovirus infected sf9 insect cells
# [14] = test system: 697; test: Cytotoxicity against human 697 cells after 48 hrs by CellTiter 96 aqueous one solution assay; type: cell-based; settings: Homo sapiens, 697, 48 h
# [15] = Selectivity ratio of IC50 for N-terminal Flag-tagged human HDAC10 (2 to 631 residues) expressed in baculovirus infected sf9 insect cells to IC50 for human N-terminal GST-tagged HDAC6 expressed in baculovirus infected sf9 insect cells
# [16] = Stability in rat liver S9 fraction assessed as parent compound remaining at 5 uM after 90 mins in presence of NADPH by LC-MS/MS analysis; type: ADME, subcellular; settings: read-out: Stability
IC50 [1],IC50 [2],inhibition (INH) [3],"remaining at 4 h, 100 µM [4]","remaining at […], 5 µM [9]","remaining at 4 h, 100 µM [10]","remaining at […], 5 µM [16]",SMILES,Ratio IC50 [5],IC50 [6],Ratio IC50 [7],Ratio IC50 [8],Ratio IC50 [11],Ratio IC50 [12],Ratio IC50 [13],IC50 [14],Ratio IC50 [15]
18400 nM,1390 nM,–,–,–,–,–,Nc1ccc(C(=O)NO)cc1,–,–,–,–,–,–,–,–,–
–,6 nM,Active,92%,76%,80%,30%,Cc1cc(-c2nnc(Sc3c(F)cc(C(=O)NO)cc3F)n2C)nn1C,294,> 1000 nM,42,48,24,48,19,> 1000 nM,497
1670 nM,270 nM,–,–,–,–,–,CC(=O)Nc1ccc(C(=O)NO)cc1,–,–,–,–,–,–,–,–,–
–,3 nM,Active,88%,74%,77%,48%,Nc1ccc(-c2nnn(Cc3c(F)cc(C(=O)NO)cc3F)n2)cc1,86,> 1000 nM,144,325,118,162,230,> 1000 nM,138
–,13 nM,Active,100%,79%,98%,58%,Cn1c(Sc2c(F)cc(C(=O)NO)cc2F)nnc1-c1cccnn1,278,> 1000 nM,34,15,16,33,34,> 1000 nM,372
–,3 nM,Active,100%,94%,100%,68%,O=C(NO)c1cc(F)c(Cn2nnc(-c3ccco3)n2)c(F)c1,259,> 1000 nM,194,330,192,219,210,> 1000 nM,876
5000 nM,–,–,–,–,–,–,NCc1ccc(C(=O)NO)cc1,–,–,–,–,–,–,–,–,–
–,–,Active,93%,68%,84%,32%,O=C(NO)c1cc(F)c(Cc2nnc(-c3ccncc3)s2)c(F)c1,291,> 1000 nM,67,77,44,101,139,> 1000 nM,507
3560 nM,353 nM,–,–,–,–,–,Cc1nnc(-c2ccc(C(=O)NO)cc2)[nH]1,–,–,–,–,–,–,–,–,–
71600 nM,2370 nM,–,–,–,–,–,O=C(NO)c1ccccc1 [BENZOHYDROXAMATE],–,–,–,–,–,–,–,–,–
–,–,Active,99%,83%,87%,71%,Cn1c(Sc2c(F)cc(C(=O)NO)cc2F)nnc1-c1cccs1,254,> 1000 nM,171,61,55,155,21,> 1000 nM,763
–,10 nM,Active,91%,78%,85%,55%,Cn1c(Sc2c(F)cc(C(=O)NO)cc2F)nnc1-c1cccc(CN2CCCCCC2)c1,169,> 1000 nM,82,79,23,86,41,> 1000 nM,310
2900 nM,198 nM,–,–,–,–,–,O=C(NO)c1ccc(Cc2nnc[nH]2)cc1,–,–,–,–,–,–,–,–,–
–,–,Active,97%,80%,100%,70%,Cn1c(Sc2c(F)cc(C(=O)NO)cc2F)nnc1-c1ncccc1F,250,> 1000 nM,54,38,24,53,64,> 1000 nM,432
